In patent publication US20030144355A1, “Stabilisation of pigments and polyunsaturated oils and oil concentrates” (priority 1999, published 2003):
Values belong to the compound of their own block, whether it stands above or below them.

Tests used:
[1] = weight-gain oxidative stability test of treated fish oil (induction period), Example 2; format: physicochemical; conditions: for induction period (IP; time before rapid oxygen uptake): stored at about 35° C.
Experimental: The oxidative stability of oils can be compared by accelerated tests, such as the weight-gain method, where oil samples are stored at elevated temperatures and oxygen atmosphere. The weight increase due to oxygen absorption is measured and plotted against time. At a certain time, depending on the oils resistance to oxidation, weight increase will be rapid, and the time before this happens is noted as the oils induction time (IP).
0.083 moles of amine/amide was added to 95 g of a fish oil, which was progressively heated to 90° C. (A series) or 140° C. (B series) during agitation to dissolve the substances in the oil. After 30 minutes at this temperature, the oil was cooled and filtered.
Three 3-g samples of filtered untreated oil, and three 3-g samples of filtered oil from each of the treatments described in table 1, were placed in identical petri dishes (60 mm, with loose fitting lids) and accurately weighed. The petri dishes were placed in an oven at about 35° C., and the weight increase related to oxygen uptake (oxidation) was recorded by weighing 3 times/week.
The results given in FIG. 4 and in FIG. 5 indicates large differences in stability as measured by induction periods (IP; i.e. the time before rapid oxygen uptake), ranging from 17 days (oils heated to 90° C. or 140° C. without any substance added) and 19 days (untreated oil), to 95 days (oils treated with hexylamine at 90° C., or allylurea at 140° C., or N,N′-dimethylurea at 140° C.).

[2] = solubility in oil; format: physicochemical; conditions: ambient temperature
[3] = fish oil treated with 0.083 moles per 95 g oil at 140° C. for 30 minutes

stability in prolonged storage ([1]; fish oil treated at 90° C., experiment continued for another 70 days, about 35° C.): still were stable | induction period (IP; time before rapid oxygen uptake) ([1]; fish oil treated with 0.083 moles per 95 g oil at 90° C. for 30 minutes): 95 days
Structure (SMILES): CCCCCCN [A3, Hexylamine]

day of rapid weight increase, prolonged storage ([1]; fish oil treated at 140° C., experiment continued for another 70 days, about 35° C.): 135 days | induction period (IP; time before rapid oxygen uptake) [1, 3]: 95 days
Structure (SMILES): CNC(=O)NC [B4, N,N′-dimethylurea]

induction period (IP; time before rapid oxygen uptake) [1, 3]: 95 days
Structure (SMILES): C=CCNC(N)=O [allylurea, Allylurea]

solubility in oil [2]: approx. 1 g per kg oil
Structure (SMILES): NC(N)=O [urea]
